PubChem BioAssay (NCI)
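Growth conditions: 96-well plates. Treatment: test compound, 48 hours, 5 concentrations. Analysis: linear interpolation between bracketing concentrations; unreached endpoints set to highest concentration. Abbreviation: GI50, concentration required for 50% inhibition of growth. TGI: concentration producing complete growth inhibition.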

Legend:
Assay in all cases: NCI tumour cell line growth inhibition, 48 h
SF-539 CNS = test system: SF-539 CNS
SK-MEL-5 melanoma = test system: SK-MEL-5 melanoma
IGROV1 ovarian = test system: IGROV1 ovarian
HOP-92 NSCLC = test system: HOP-92 NSCLC
HL-60(TB) leukemia = test system: HL-60(TB) leukemia
SK-MEL-28 melanoma = test system: SK-MEL-28 melanoma
PC-3 prostate = test system: PC-3 prostate
COLO 205 colon = test system: COLO 205 colon
A498 renal = test system: A498 renal
A549 NSCLC = test system: A549 NSCLC
UO-31 renal = test system: UO-31 renal
786-0 renal = test system: 786-0 renal
BT-549 breast = test system: BT-549 breast
SNB-75 CNS = test system: SNB-75 CNS
UACC-62 melanoma = test system: UACC-62 melanoma
SK-OV-3 ovarian = test system: SK-OV-3 ovarian
T-47D breast = test system: T-47D breast
HCT-15 colon = test system: HCT-15 colon
SN12C renal = test system: SN12C renal
EKVX NSCLC = test system: EKVX NSCLC
DU-145 prostate = test system: DU-145 prostate
RXF 393 renal = test system: RXF 393 renal
TK-10 renal = test system: TK-10 renal
RPMI-8226 leukemia = test system: RPMI-8226 leukemia
HCT-116 colon = test system: HCT-116 colon
MDA-MB-231 breast = test system: MDA-MB-231 breast
SF-295 CNS = test system: SF-295 CNS
M14 melanoma = test system: M14 melanoma
OVCAR-5 ovarian = test system: OVCAR-5 ovarian
ACHN renal = test system: ACHN renal
NCI/ADR-RES ovarian = test system: NCI/ADR-RES ovarian
UACC-257 melanoma = test system: UACC-257 melanoma
CAKI-1 renal = test system: CAKI-1 renal
HT29 colon = test system: HT29 colon
LOX IMVI melanoma = test system: LOX IMVI melanoma
MDA-MB-435 = test system: MDA-MB-435
MOLT-4 leukemia = test system: MOLT-4 leukemia
NCI-H522 lung = test system: NCI-H522 lung
OVCAR-4 ovarian = test system: OVCAR-4 ovarian
OVCAR-8 ovarian = test system: OVCAR-8 ovarian
SW-620 colon = test system: SW-620 colon
KM12 colon = test system: KM12 colon
NCI-H460 lung = test system: NCI-H460 lung
SR leukemia = test system: SR leukemia
SNB-19 CNS = test system: SNB-19 CNS
HOP-62 NSCLC = test system: HOP-62 NSCLC
K-562 leukemia = test system: K-562 leukemia
HCC-2998 colon = test system: HCC-2998 colon
OVCAR-3 ovarian = test system: OVCAR-3 ovarian
MCF7 breast = test system: MCF7 breast
NCI-H226 lung = test system: NCI-H226 lung
CCRF-CEM leukemia = test system: CCRF-CEM leukemia
U251 CNS = test system: U251 CNS
MALME-3M melanoma = test system: MALME-3M melanoma
SK-MEL-2 melanoma = test system: SK-MEL-2 melanoma
SF-268 CNS = test system: SF-268 CNS
NCI-H23 lung = test system: NCI-H23 lung

In the case of `CCCCCCCCCCCCC[N+](C)(C)Cc1ccccc1`, the GI50 (SF-539 CNS) is reported as 1450 nM, the TGI (SF-539 CNS) is reported as 2970 nM and the GI50 (SK-MEL-5 melanoma) is reported as 874 nM. For the same compound, the TGI (SK-MEL-5 melanoma) was 2110 nM, the GI50 (IGROV1 ovarian) was 477 nM and the TGI (IGROV1 ovarian) was 1820 nM. The GI50 (HOP-92 NSCLC) was 338 nM, the TGI (HOP-92 NSCLC) was 1830 nM and the GI50 (HL-60(TB) leukemia) was 680 nM. The TGI (HL-60(TB) leukemia) was 2150 nM, the GI50 (SK-MEL-28 melanoma) was 1520 nM and the TGI (SK-MEL-28 melanoma) was 2890 nM. It also gave a GI50 (PC-3 prostate) of 306 nM, a TGI (PC-3 prostate) of 1400 nM and a GI50 (COLO 205 colon) of 1140 nM. The TGI (COLO 205 colon) was 2450 nM, the GI50 (A498 renal) was 1440 nM and the TGI (A498 renal) was 5010 nM. It also gave a GI50 (A549 NSCLC) of 1610 nM, a TGI (A549 NSCLC) of 3170 nM and a GI50 (UO-31 renal) of 2050 nM. It also gave a TGI (UO-31 renal) of 6420 nM, a GI50 (786-0 renal) of 1560 nM and a TGI (786-0 renal) of 3070 nM. It also gave a GI50 (BT-549 breast) of 1130 nM, a TGI (BT-549 breast) of 2420 nM and a GI50 (SNB-75 CNS) of 1500 nM. The TGI (SNB-75 CNS) was 2970 nM, the GI50 (UACC-62 melanoma) was 633 nM and the TGI (UACC-62 melanoma) was 1950 nM. For the same compound, the GI50 (SK-OV-3 ovarian) was 1310 nM, the TGI (SK-OV-3 ovarian) was 2600 nM and the GI50 (T-47D breast) was 336 nM. For the same compound, the TGI (T-47D breast) was 1710 nM, the GI50 (HCT-15 colon) was 5080 nM and the TGI (HCT-15 colon) was 25400 nM. For the same compound, the GI50 (SN12C renal) was 1200 nM, the TGI (SN12C renal) was 2610 nM and the GI50 (EKVX NSCLC) was 1570 nM. It also gave a TGI (EKVX NSCLC) of 4520 nM, a GI50 (DU-145 prostate) of 1420 nM and a TGI (DU-145 prostate) of 2740 nM. For the same compound, the GI50 (RXF 393 renal) was 385 nM, the TGI (RXF 393 renal) was 1600 nM and the GI50 (TK-10 renal) was 871 nM. The TGI (TK-10 renal) was 2210 nM, the GI50 (RPMI-8226 leukemia) was 451 nM and the TGI (RPMI-8226 leukemia) was 2520 nM. The GI50 (HCT-116 colon) was 925 nM, the TGI (HCT-116 colon) was 2140 nM and the GI50 (MDA-MB-231 breast) was 1350 nM. It also gave a TGI (MDA-MB-231 breast) of 2900 nM, a GI50 (SF-295 CNS) of 1420 nM and a TGI (SF-295 CNS) of 2870 nM. The GI50 (M14 melanoma) was 1040 nM, the TGI (M14 melanoma) was 2400 nM and the GI50 (OVCAR-5 ovarian) was 1470 nM. It also gave a TGI (OVCAR-5 ovarian) of 2920 nM, a GI50 (ACHN renal) of 3410 nM and a TGI (ACHN renal) of 12800 nM. The GI50 (NCI/ADR-RES ovarian) was 18000 nM, the TGI (NCI/ADR-RES ovarian) was 50500 nM and the GI50 (UACC-257 melanoma) was 1360 nM. For the same compound, the TGI (UACC-257 melanoma) was 2850 nM, the GI50 (CAKI-1 renal) was 4990 nM and the TGI (CAKI-1 renal) was 23000 nM. The GI50 (HT29 colon) was 493 nM and the TGI (HT29 colon) was 1930 nM.

For `CC[C@]12C=CCN3CC[C@]4(C(=C(C(=O)OC)C1)Nc1cc(OC)c(OC(C)=O)cc14)[C@@H]32`, the GI50 (LOX IMVI melanoma) was 254 nM, the TGI (LOX IMVI melanoma) was 1270 nM and the GI50 (SK-MEL-5 melanoma) was 209 nM. For the same compound, the TGI (SK-MEL-5 melanoma) was 481 nM, the GI50 (IGROV1 ovarian) was 473 nM and the TGI (IGROV1 ovarian) was 20400 nM. The GI50 (HOP-92 NSCLC) was 247 nM, the TGI (HOP-92 NSCLC) was 10300 nM and the GI50 (HL-60(TB) leukemia) was 184 nM. For the same compound, the TGI (HL-60(TB) leukemia) was 654 nM, the GI50 (MDA-MB-435) was 100 nM and the TGI (MDA-MB-435) was 319 nM. For the same compound, the GI50 (MOLT-4 leukemia) was 383 nM, the TGI (MOLT-4 leukemia) was 14900 nM and the GI50 (SK-MEL-28 melanoma) was 1620 nM. For the same compound, the TGI (SK-MEL-28 melanoma) was 12500 nM, the GI50 (PC-3 prostate) was 384 nM and the TGI (PC-3 prostate) was 15200 nM. It also gave a GI50 (COLO 205 colon) of 769 nM, a TGI (COLO 205 colon) of 4520 nM and a GI50 (NCI-H522 lung) of 81.9 nM. For the same compound, the TGI (NCI-H522 lung) was 1040 nM, the GI50 (OVCAR-4 ovarian) was 446 nM and the TGI (OVCAR-4 ovarian) was 17500 nM. For the same compound, the GI50 (A498 renal) was 133 nM, the TGI (A498 renal) was 718 nM and the GI50 (A549 NSCLC) was 397 nM. It also gave a TGI (A549 NSCLC) of 19000 nM, a GI50 (UO-31 renal) of 483 nM and a TGI (UO-31 renal) of 5600 nM. The GI50 (786-0 renal) was 318 nM, the TGI (786-0 renal) was 10000 nM and the GI50 (OVCAR-8 ovarian) was 407 nM. The TGI (OVCAR-8 ovarian) was > 100000 nM, the GI50 (BT-549 breast) was 244 nM and the TGI (BT-549 breast) was 674 nM. For the same compound, the GI50 (SW-620 colon) was 319 nM, the TGI (SW-620 colon) was 10500 nM and the GI50 (SNB-75 CNS) was 308 nM. It also gave a TGI (SNB-75 CNS) of 21000 nM, a GI50 (KM12 colon) of 303 nM and a TGI (KM12 colon) of 2640 nM. For the same compound, the GI50 (NCI-H460 lung) was 360 nM, the TGI (NCI-H460 lung) was 11600 nM and the GI50 (SR leukemia) was 164 nM. For the same compound, the TGI (SR leukemia) was 11200 nM, the GI50 (SNB-19 CNS) was 591 nM and the TGI (SNB-19 CNS) was 21500 nM. The GI50 (UACC-62 melanoma) was 326 nM, the TGI (UACC-62 melanoma) was 3080 nM and the GI50 (HOP-62 NSCLC) was 400 nM. It also gave a TGI (HOP-62 NSCLC) of 14100 nM, a GI50 (K-562 leukemia) of 274 nM and a TGI (K-562 leukemia) of 15400 nM. It also gave a GI50 (HCC-2998 colon) of 416 nM, a TGI (HCC-2998 colon) of 6790 nM and a GI50 (OVCAR-3 ovarian) of 225 nM. The TGI (OVCAR-3 ovarian) was 602 nM, the GI50 (SK-OV-3 ovarian) was 325 nM and the TGI (SK-OV-3 ovarian) was 12500 nM. The GI50 (T-47D breast) was 1420 nM, the TGI (T-47D breast) was 17800 nM and the GI50 (HCT-15 colon) was 310 nM. For the same compound, the TGI (HCT-15 colon) was 1560 nM, the GI50 (SN12C renal) was 530 nM and the TGI (SN12C renal) was 14800 nM. The GI50 (EKVX NSCLC) was 625 nM, the TGI (EKVX NSCLC) was 19300 nM and the GI50 (MCF7 breast) was 238 nM. The TGI (MCF7 breast) was 14400 nM, the GI50 (RXF 393 renal) was 389 nM and the TGI (RXF 393 renal) was 8880 nM. For the same compound, the GI50 (NCI-H226 lung) was 917 nM, the TGI (NCI-H226 lung) was 21900 nM and the GI50 (TK-10 renal) was 1020 nM. For the same compound, the TGI (TK-10 renal) was 7510 nM, the GI50 (RPMI-8226 leukemia) was 478 nM and the TGI (RPMI-8226 leukemia) was 12300 nM. It also gave a GI50 (HCT-116 colon) of 275 nM, a TGI (HCT-116 colon) of 1380 nM and a GI50 (MDA-MB-231 breast) of 389 nM. For the same compound, the TGI (MDA-MB-231 breast) was 14500 nM, the GI50 (CCRF-CEM leukemia) was 380 nM and the TGI (CCRF-CEM leukemia) was 1860 nM. For the same compound, the GI50 (U251 CNS) was 386 nM, the TGI (U251 CNS) was 12000 nM and the GI50 (SF-295 CNS) was 377 nM. It also gave a TGI (SF-295 CNS) of 14600 nM, a GI50 (M14 melanoma) of 181 nM and a TGI (M14 melanoma) of 684 nM. It also gave a GI50 (OVCAR-5 ovarian) of 719 nM, a TGI (OVCAR-5 ovarian) of 16200 nM and a GI50 (ACHN renal) of 176 nM. It also gave a TGI (ACHN renal) of 2620 nM, a GI50 (MALME-3M melanoma) of 1420 nM and a TGI (MALME-3M melanoma) of 16100 nM. The GI50 (SK-MEL-2 melanoma) was 689 nM, the TGI (SK-MEL-2 melanoma) was 23000 nM and the GI50 (NCI/ADR-RES ovarian) was 339 nM. The TGI (NCI/ADR-RES ovarian) was 89900 nM, the GI50 (UACC-257 melanoma) was 1970 nM and the TGI (UACC-257 melanoma) was 17500 nM. The GI50 (SF-268 CNS) was 399 nM, the TGI (SF-268 CNS) was 13200 nM and the GI50 (CAKI-1 renal) was 503 nM. The TGI (CAKI-1 renal) was 15600 nM, the GI50 (NCI-H23 lung) was 395 nM and the TGI (NCI-H23 lung) was 18800 nM. The GI50 (HT29 colon) was 1860 nM and the TGI (HT29 colon) was 11000 nM.
